Measured values reported in patent publication US10173968B2, “Bishydrazone-based antifungal agents” (University of Kentucky Research Foundation, priority 2016, dated 2019).
Several values for one entry are separate records, joined by “and”; a condition that tells them apart may be missing. Identical values can stand only once. Like-named read-outs stand apart in the source and are kept apart here.

How the values were obtained:
[1] = test system: C. albicans strains (panel of seven); test: Antifungal MIC, summary over the panel; assay type: cell-based, Candida albicans; conditions: Candida albicans; all, most or majority of the fungal strains; read-out: MIC, span over C. albicans strains
Protocol: In vitro MIC testing was performed according to the CLSI M27-A3 standard microbroth dilution methodology for the susceptibility testing of yeasts with minor modifications. […] MIC values were read visually for all tested compounds, and the endpoint was determined as the minimum concentration of compound that yielded complete inhibition relative to growth control.

C. albicans ATCC 1237 = test: Antifungal MIC, CLSI M27-A3 microbroth dilution; assay type: cell-based, Candida albicans; conditions: ITC, and VOR
Protocol: (§1) In vitro MIC testing was performed according to the CLSI M27-A3 standard microbroth dilution methodology for the susceptibility testing of yeasts with minor modifications.

C. albicans ATCC 2310 = test: Antifungal MIC, CLSI M27-A3 microbroth dilution; assay type: cell-based, Candida albicans; conditions: Candida albicans, ATCC2310, C. albicans ATCC 2310, susceptible to FLC, ITC, and VOR, read-out: MIC
Protocol: as §1

C. albicans ATCC 2876 = test: Antifungal MIC, CLSI M27-A3 microbroth dilution; assay type: cell-based, Candida albicans; conditions: Candida albicans, ATCC2876, C. albicans ATCC 2876, susceptible to FLC, ITC, and VOR, read-out: MIC
Protocol: as §1

C. albicans ATCC 90819 = test: Antifungal MIC, CLSI M27-A3 microbroth dilution; assay type: cell-based, Candida albicans; conditions: Candida albicans, ATCC90819, C. albicans ATCC 90819, resistant to FLC, ITC, and VOR, read-out: MIC
Protocol: as §1

C. albicans ATCC 64124 = test: Antifungal MIC, CLSI M27-A3 microbroth dilution; assay type: cell-based, Candida albicans; conditions: Candida albicans, ATCC64124, C. albicans ATCC 64124, resistant to FLC, ITC, and VOR, read-out: MIC
Protocol: as §1

C. albicans ATCC 10231 = test: Antifungal MIC, CLSI M27-A3 microbroth dilution; assay type: cell-based, Candida albicans; conditions: Candida albicans, ATCC10231, C. albicans ATCC 10231, resistant to FLC, ITC, and VOR, read-out: MIC
Protocol: as §1

C. albicans ATCC 1003 = test: Antifungal MIC, CLSI M27-A3 microbroth dilution; assay type: cell-based, Candida albicans; conditions: Candida albicans, ATCC1003, read-out: MIC
Protocol: as §1

E. coli MC1061 = test: Antibacterial MIC, double-dilution method; assay type: cell-based; conditions: Escherichia coli
Protocol: (§2) MIC values were determined against a variety of Gram-positive (strains A-D) and Gram-negative (E-J) bacterial and mycobacterial (K) strains using the double-dilution method, as previously published. Preliminary screening was performed using 500 μM of each compound.

VRE = test: Antibacterial MIC, double-dilution method; assay type: cell-based; conditions: Enterococcus
Protocol: as §2

[2] = test system: L. monocytogenes ATCC 19115; test: Antibacterial MIC, double-dilution method; assay type: cell-based; conditions: Listeria monocytogenes, ATCC19115
Protocol: as §2

E. cloacae ATCC 13047 = test: Antibacterial MIC, double-dilution method; assay type: cell-based; conditions: Enterobacter cloacae, ATCC13047
Protocol: as §2

P. aeruginosa ATCC 27853 = test: Antibacterial MIC, double-dilution method; assay type: cell-based; conditions: Pseudomonas aeruginosa, ATCC27853, strain I, Gram-negative, read-out: MIC
Protocol: as §2

S. enterica ATCC 14028 = test: Antibacterial MIC, double-dilution method; assay type: cell-based; conditions: Salmonella enterica, ATCC14028
Protocol: as §2

B. subtilis 168 = test: Antibacterial MIC, double-dilution method; assay type: cell-based; conditions: Bacillus subtilis, strain A, Gram-positive
Protocol: as §2

M. smegmatis MC2-155 = test: Antibacterial MIC, double-dilution method; assay type: cell-based; conditions: Mycolicibacterium smegmatis, MC2155, strain K, mycobacterial, read-out: MIC
Protocol: as §2

K. pneumoniae ATCC 27736 = test: Antibacterial MIC, double-dilution method; assay type: cell-based; conditions: Klebsiella pneumoniae, ATCC27736, strain H, Gram-negative, read-out: MIC
Protocol: as §2

MRSA = test: Antibacterial MIC, double-dilution method; assay type: cell-based; conditions: Staphylococcus aureus
Protocol: as §2

A. baumannii ATCC 19606 = test: Antibacterial MIC, double-dilution method; assay type: cell-based; conditions: Acinetobacter baumannii, ATCC19606
Protocol: as §2

[3] = Candida albicans, ATCC1237, C. albicans ATCC 1237, resistant to FLC, converted from μg/mL, read-out: MIC
[4] = Candida albicans, ATCC1237, C. albicans ATCC 1237, resistant to FLC, read-out: MIC
[5] = C. albicans ATCC 1003, converted from μg/mL
[6] = strain G, Gram-negative, converted from μM, read-out: MIC
[7] = strain G, Gram-negative, range 0.5 to 500 μM, read-out: MIC
[8] = strain D, Gram-positive, range 0.5 to 500 μM, read-out: MIC
[9] = strain B, Gram-positive, range 0.5 to 500 μM, read-out: MIC
[10] = strain F, Gram-negative, converted from μM, read-out: MIC
[11] = strain F, Gram-negative, range 0.5 to 500 μM, read-out: MIC
[12] = strain J, Gram-negative, range 0.5 to 500 μM, read-out: MIC
[13] = strain C, Gram-positive, range 0.5 to 500 μM, read-out: MIC
[14] = strain E, Gram-negative, range 0.5 to 500 μM, read-out: MIC
[15] = strain D, Gram-positive, converted from μM, read-out: MIC
[16] = strain B, Gram-positive, converted from μM, read-out: MIC
[17] = strain J, Gram-negative, converted from μM, read-out: MIC
[18] = strain C, Gram-positive, converted from μM, read-out: MIC
[19] = strain E, Gram-negative, converted from μM, read-out: MIC

Compound | MIC (C. albicans ATCC 1237; [3]) [µM] | MIC (C. albicans ATCC 1237; [4]) [µg/mL] | MIC (C. albicans ATCC 2310; converted from μg/mL) [µM] | MIC (C. albicans ATCC 2310) [µg/mL] | MIC (C. albicans ATCC 2876; converted from μg/mL) [µM] | MIC (C. albicans ATCC 2876) [µg/mL] | MIC (C. albicans ATCC 90819; converted from μg/mL) [µM] | MIC (C. albicans ATCC 90819) [µg/mL] | MIC (C. albicans ATCC 64124; converted from μg/mL) [µM] | MIC (C. albicans ATCC 64124) [µg/mL] | MIC (C. albicans ATCC 10231; converted from μg/mL) [µM] | MIC (C. albicans ATCC 10231) [µg/mL] | MIC (C. albicans ATCC 1003; [5]) [µM] | MIC (C. albicans ATCC 1003) [µg/mL] | MIC (VRE; [8]) [µM] | MIC [2, 9] [µM] | MIC (S. enterica ATCC 14028; [12]) [µM] | MIC (B. subtilis 168; converted from μM) [µg/mL] | MIC (B. subtilis 168; range 0.5 to 500 μM) [µM] | MIC (K. pneumoniae ATCC 27736; converted from μM) [µg/mL] | other results
C/C(=N\NC(=N)N)c1ccc(-c2ccc(/C(C)=N/NC(=N)N)cc2)cc1.Cl.Cl [Compound 4A, (2E,2′E)-2,2′-([1,1′-Biphenyl]-4,4′-diylbis(ethan-1-yl-1-ylidene))bis(hydrazine-1-carboximidamide) dihydrochloride] | > 73.9 | 31.3 | 9.2 | 3.9 | 4.7 | 2 | 9.2 | 3.9 | 4.7 | 2 | 4.7 to 9.2 | 2 to 3.9 | 18.4 | 7.8 | > 500 | > 500 | > 500 | > 212 | > 500 | 6.6 | MIC [1]: 2 to 3.9 µg/mL; MIC (C. albicans ATCC 1237; C. albicans ATCC 1237, resistant to FLC, dihydrochloride): >31.3 µg/mL; MIC (E. coli MC1061; [6]): 26.5 µg/mL; MIC (E. coli MC1061; [7]): 62.5 µM; MIC (VRE): > 212 µg/mL; MIC [2]: > 212 µg/mL; MIC (E. cloacae ATCC 13047; [10]): 52.9 µg/mL; MIC (E. cloacae ATCC 13047; [11]): 125 µM; MIC (P. aeruginosa ATCC 27853; converted from μM): 0.8 µg/mL; MIC (P. aeruginosa ATCC 27853; range 0.5 to 500 μM): 2 µM; MIC (S. enterica ATCC 14028): > 212 µg/mL; MIC (M. smegmatis MC2-155; converted from μM): > 212 µg/mL; MIC (M. smegmatis MC2-155; range 0.5 to 500 μM): > 500 µM; MIC (K. pneumoniae ATCC 27736; range 0.5 to 500 μM): 15.6 µM; MIC (MRSA): > 212 µg/mL; MIC (MRSA; [13]): > 500 µM; MIC (A. baumannii ATCC 19606): > 212 µg/mL; MIC (A. baumannii ATCC 19606; [14]): > 500 µM
C/C(=N\NC(=N)N)c1ccc(-c2ccc(/C(C)=N/Nc3ccccc3Cl)cc2)cc1.Cl [Compound 8Aa, (E)-2-(1-(4′-((E)-1-(2-(2-chlorophenyl)hydrazono)ethyl)-[1,1′-biphenyl]-4-yl)ethylidene)hydrazine-1-carboximidamide hydrochloride] | 34.3 | 15.6 | 34.3 | 15.6 | 34.3 | 15.6 | 34.3 | 15.6 | 68.7 | 31.3 | 34.3 | 15.6 | 34.3 | 15.6 | 3.9 | 62.5 to 125 | 62.5 to 125 | 26.6 to 53.3 | 62.5 to 125 | 26.6 to 53.3 | MIC [1]: 7.8 to 15.6 µg/mL; melting point: > 380 °C; MIC (E. coli MC1061): 213 µg/mL and 500 µM; MIC (VRE; [15]): 1.7 µg/mL; MIC [2, 16]: 26.6 to 53.3 µg/mL; MIC (S. enterica ATCC 14028; [17]): 26.3 to 53.3 µg/mL; MIC (K. pneumoniae ATCC 27736; range 0.5 to 500 μM): 62.5 to 125 µM; MIC (MRSA; [18]): 53.3 µg/mL; MIC (MRSA; [13]): 125 µM; MIC (A. baumannii ATCC 19606; [19]): 26.6 µg/mL; MIC (A. baumannii ATCC 19606; [14]): 62.5 µM
C/C(=N\NC(=N)N)c1ccc(/C(C)=N/NC(=N)N)cc1.Cl.Cl [Compound 4G, (2E,2′E)-2,2′-(1,4-Phenylenebis(ethan-1-yl-1-ylidene))bis(hydrazine-1-carboximidamide) dihydrochloride] | > 90.1 | > 31.3 | > 90.1 | > 31.3 | > 90.1 | > 31.3 | > 90.1 | > 31.3 | 90.1 | 31.3 | > 90.1 | > 31.3 | > 90.1 | > 31.3 | 125 | 250 | 250 to 500 | 86.8 | 250 | 173 | MIC (E. coli MC1061; [6]): > 173 µg/mL; MIC (E. coli MC1061; [7]): > 500 µM; MIC (VRE; [15]): 43.4 µg/mL; MIC [2, 16]: 86.8 µg/mL; MIC (E. cloacae ATCC 13047): > 173 µg/mL; MIC (E. cloacae ATCC 13047; [11]): > 500 µM; MIC (P. aeruginosa ATCC 27853; converted from μM): 86.8 µg/mL; MIC (P. aeruginosa ATCC 27853; range 0.5 to 500 μM): 250 µM; MIC (S. enterica ATCC 14028; [17]): 86.8 to 173 µg/mL; MIC (M. smegmatis MC2-155; converted from μM): > 173 µg/mL; MIC (M. smegmatis MC2-155; range 0.5 to 500 μM): > 500 µM; MIC (K. pneumoniae ATCC 27736; range 0.5 to 500 μM): 500 µM; MIC (MRSA): > 173 µg/mL; MIC (MRSA; [13]): > 500 µM; MIC (A. baumannii ATCC 19606; [19]): 173 µg/mL; MIC (A. baumannii ATCC 19606; [14]): 500 µM
C/C(=N\NC(=N)N)c1ccc(Cc2ccc(/C(C)=N/NC(=N)N)cc2)cc1.Cl.Cl [Compound 4C, (2E,2′E)-2,2′-((methylenebis(4,1-phenylene))bis(ethan-1-yl-1-ylidene))bis(hydrazine-1-carboximidamide) dihydrochloride] | 17.8 | 7.8 | 17.8 | 7.8 | 8.9 | 3.9 | 17.8 | 7.8 | 17.8 | 7.8 | 17.8 | 7.8 | 17.8 | 7.8 | 2 | 3.9 | > 500 | > 219 | > 500 | > 219 | melting point: 342 to 344 °C; MIC (E. coli MC1061; [6]): > 219 µg/mL; MIC (E. coli MC1061; [7]): > 500 µM; MIC (VRE; [15]): 0.9 µg/mL; MIC [2, 16]: 1.7 µg/mL; MIC (E. cloacae ATCC 13047; [10]): > 219 µg/mL; MIC (E. cloacae ATCC 13047; [11]): > 500 µM; MIC (P. aeruginosa ATCC 27853; converted from μM): > 219 µg/mL; MIC (P. aeruginosa ATCC 27853; range 0.5 to 500 μM): > 500 µM; MIC (S. enterica ATCC 14028; [17]): > 219 µg/mL; MIC (M. smegmatis MC2-155; converted from μM): 0.9 µg/mL; MIC (M. smegmatis MC2-155; range 0.5 to 500 μM): 2 µM; MIC (K. pneumoniae ATCC 27736; range 0.5 to 500 μM): > 500 µM; MIC (MRSA; [18]): 1.7 µg/mL; MIC (MRSA; [13]): 3.9 µM; MIC (A. baumannii ATCC 19606; [19]): > 219 µg/mL; MIC (A. baumannii ATCC 19606; [14]): > 500 µM
